SMILES strings stand for the structures.

From patent US7741521B2, “Inhibition of bid-induced cell-death using small organic molecules” (The Burnham Institute, priority 2004, dated 2010) come the findings set out here.

The target of one assay is T1, tBID (Mus musculus, UniProt P70444).
T1 construct: tBID was produced by cleavage of purified BID with caspase-8, as known in the art; made in house; host or cells: E. coli BL21 (BID), then cleaved in vitro with caspase-8
T1 sequence (P70444 60-195 limits assumed): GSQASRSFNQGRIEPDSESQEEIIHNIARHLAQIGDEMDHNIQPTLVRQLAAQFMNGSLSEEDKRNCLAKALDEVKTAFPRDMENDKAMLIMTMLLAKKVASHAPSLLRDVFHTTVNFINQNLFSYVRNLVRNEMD
T1 sequence (P70444 1-59 partner limits assumed): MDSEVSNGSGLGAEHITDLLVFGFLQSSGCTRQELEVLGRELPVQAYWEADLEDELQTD
Nature of the assay: tBID-induced Smac release from isolated mitochondria. The following applies: 50 μM compound; isolated mitochondria. It counts as biochemical. Here is the method:
100 ng of tBID (cleaved by caspase 8) was pre-incubated with various concentrations of compounds for 15 minutes at 30° C. in HM buffer (10 mM Hepes, pH 7.4, 250 mM Mannitol, 10 mM KCl, 1.5 mM MgCl, 1 mM DTT, 1 mM EGTA), then 50 μg of isolated mitochondria from HCT116 cells were added to a final volume of 50 μl in HM buffer. After 1 hour incubation at 30° C., the samples were centrifuged at 10,000×g for 5 minutes at 4° C. and the supernatant was analyzed by SDS-PAGE/immunoblotting using anti-SMAC antibody.
Compounds II-IX were tested in vitro for their ability to inhibit BID-mediated release of Smac using mitochondria isolated from HeLa cells (FIG. 6A). The first lane represents mitochondria incubated without tBID. All others received 100 ng tBID without or with compounds. Each compound was tested at a concentration of 50 μM. […] To preliminarily investigate the mechanism by which compound II reduces Smac-release from isolated mitochondria, the tBID protein was treated with different concentrations of BI-6C9, after which it was incubated with mitochondria, followed by analysis of the bound and unbound fractions by immunoblotting using BID antibody. The concentration of mitochondria-bound tBID diminished in response to increasing concentrations of compound II.
About 50 ng of tBID cleaved by […] was pre-incubated for about 15 minutes at about 30° C. with various concentrations of compounds I, II, and X. Then, about 50 μg of isolated mitochondria from Hela cells were added to the reaction system. After about 1 hour of incubation at about 30° C., the samples were centrifuged at 10,000×g for about 5 minutes at about 4° C., and the supernatant was analyzed by SDS-PAGE/immunoblotting using Smac antibody. The results of the analysis are presented on FIG. 8. As shown by FIG. 9, compound I is a strong binder for BID.
Some results of comparative studies of compounds I and II are shown on FIG. 10. […] The first lane represents mitochondria incubated without tBID. All others received 50 ng tBid without or with bi-dentate compound.
One may read the inhibition as the change of the read-out against control, counted positive when it falls. High values mean strong suppression, low ones little suppression. In the case of `CNS(=O)(=O)c1ccc(C)cc1` [X], the inhibition at 50 µM is 0%. Still for that read-out and setting: next, `COc1ccc(S(=O)(=O)NCCCC(=O)Nc2ccc(Sc3ccc([N+](=O)[O-])cc3)cc2)cc1` [Compound III, 4-(4-methoxy-benzenesulfonylamino)-N-[4-(4-nitro-phenylsulfanyl)-phenyl]-butyramide]: 24%; `CC(C)(C)OC(=O)NCCCCCC(=O)Nc1ccc(Sc2ccc([N+](=O)[O-])cc2)cc1` [Compound VIII, {5-[4-(4-nitro-phenylsulfanyl)-phenylcarbamoyl]-pentyl}-carbamic acid tert-butyl ester]: 0%; `Nc1ccc(Sc2ccc(N)cc2)cc1` [XII]: 22%. Still for that read-out and setting: for `CC(C)(C)OC(=O)NCCCC(=O)Nc1ccc(Sc2ccc([N+](=O)[O-])cc2)cc1` [Compound VI, {3-[4-(4-nitro-phenylsulfanyl)-phenylcarbamoyl]-propyl}-carbamic acid tert-butyl ester] the value was 14%. The same measure, in the same setting: for `NCCCC(=O)Nc1ccc(Sc2ccc([N+](=O)[O-])cc2)cc1` [Compound VII, 4-amino-N-[4-(4-nitro-phenylsulfanyl)-phenyl]-butyramide] the value was 66%.

Take `COc1ccc(S(=O)(=O)NCCCCCC(=O)Nc2ccc(Sc3ccc([N+](=O)[O-])cc3)cc2)cc1` [Compound V, 6-(4-methoxy-benzenesulfonylamino)-hexanoic acid [4-(4-nitro-phenylsulfanyl)-phenyl]-amide]: the inhibition at 50 µM came out at 16%. Molecule `NCCCCCC(=O)Nc1ccc(Sc2ccc([N+](=O)[O-])cc2)cc1` [Compound IX, 6-amino-hexanoic acid [4-(4-nitro-phenylsulfanyl)-phenyl]-amide] came in with an inhibition at 50 µM of 60%.

The target of the next assay is T2, BID (Mus musculus, UniProt P70444).
T2 construct: poly-His (N); made in house; host or cells: E. coli BL21
T2 sequence (P70444 1-195): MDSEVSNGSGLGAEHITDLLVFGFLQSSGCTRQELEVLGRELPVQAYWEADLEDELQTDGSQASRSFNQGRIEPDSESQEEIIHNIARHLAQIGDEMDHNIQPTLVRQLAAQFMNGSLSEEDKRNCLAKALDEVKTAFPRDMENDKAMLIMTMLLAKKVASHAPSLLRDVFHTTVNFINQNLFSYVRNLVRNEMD
Nature of the assay: NMR binding to BID (HSQC/TROSY chemical shifts). Particulars: NMR. As for the experimental part: Recombinant full length mouse BID was produced from a pET-19b (Novagen) plasmid construct containing the entire nucleotide sequence for BID fused to an N-terminal poly-His tag. Unlabeled BID was expressed in E. coli BL21 in LB media at 37° C., with an induction period of 3-4 hours with 1 mM IPTG. ^15N-labeled BID was similarly produced, with growth occurring in M9 media supplemented with 0.5 g/L ^15NH4Cl. ε-^13C-Met labeled BID was produced in M9 media supplemented with 50 mg/L of ε-^13C-Met at time of induction with IPTG. Following cell lysis, soluble BID was purified over a Hi-Trap chelating column (Amersham, Pharmacia), followed by ion-exchange purification with a MonoQ (Amersham, Pharmacia) column. Final BID samples were dialyzed into a buffer appropriate for the subsequent experiments. tBID was produced by cleavage of purified BID with caspase-8, as known in the art.
For all NMR experiments, BID was exchanged into 50 mM phosphate buffer at pH 7.5 and measurements were performed at 30° C. 2D [^15N,^1H]-TROSY spectra for BID were measured with 0.5 mM samples of ^15N-labeled BID. 2D [^13C,^1H]-HSQC spectra were measured with 0.2 mM samples of ε-^13C-Met labeled BID. 2D [^1H,^1H]-NOESY spectra were acquired with small molecules at a concentration of 0.9 mM in the presence of 10 μM BID. T1ρ competition experiments (200 msec spin-lock duration) were performed on either 100 μM BI-2A7 or a mixture of 100 μM BI-2A7 and 10 μM BI-6C9, in the presence and absence of 10 μM BID. All experiments were performed with either a 500 MHz or 600 MHz Bruker Avance spectrometer, both equipped with TXI probes. Typical parameters for the 2D [^15N,^1H]-TROSY spectra included ^1H and ^15N π/2 pulse lengths of 11 μsec and 40 μsec, respectively; ^1H and ^15N sweep widths of 12 ppm and 32 ppm, respectively; 16 scans and 256 indirect acquisition points and a recycle delay of 1 sec. For the 2D [^13C,^1H]-HSQC typical parameters included ^1H and ^13C π/2 pulse lengths of 10 μsec and 13 μsec, respectively; ^1H and ^13C sweep widths of 12 ppm and 5 ppm, respectively; 128 scans and 80 indirect acquisition points and a recycle delay of 1 sec. […]
To examine the binding affinity of some compounds of the invention to BID, 2D [^13C,^1H]-HSQC spectra in presence of ^13C methionine-labeled protein were measured, as at least one methionine is present in the hydrophobic groove of BID (FIG. 4B). […]
Monitoring the variation of cross-peak intensity upon addition of increasing amounts of compound II, allowed to estimate its dissociation constant KD. The arrow on FIG. 5C indicates the peak that was monitored to determine the Kd for compound II. […]
Consider `Nc1ccc(Sc2ccc(N)cc2)cc1` [XII], for which the “binding to BID” value is given as “weak binder”.
